Oligonucleotides are written 5' to 3', each unit as a sugar letter and its base; * is a phosphorothioate linkage, no mark a phosphodiester; rarer units and linkages stand in square brackets, end groups in braces. Plain capitals give the bases only. e = 2'-O-(2-methoxyethyl) (MOE); l = locked nucleic acid (LNA); [5mC] = 5-methylcytosine; d = 2'-deoxy (DNA)
Tested on: GRN mRNA
Test: GRN mRNA qPCR in SK-N-AS cells transfected with ASOs
Format: cell-based, human
Details: SK-N-AS; for hGRN mRNA FC / 120 nM FC (GRN mRNA): 120 nM
Protocol: The best ASOs based on increased GRN mRNA fold-change were selected for further characterization in dose titration studies. Briefly, human neuroblastoma SK-N-AS cells were transfected with 20 to 160 nM of ASOs CO-3423, CO-3431, CO-3463, and CO-3503. A steric non-targeting control ASO (sNTC) was used as a control. Cells were collected for mRNA analysis after 48 hours and GRN mRNA quantified by qPCR. Housekeeping genes for normalization were GAPDH and PPIA, and mRNA fold change (FC) was normalized to sNTC.
36 additional ASOs were designed with different modifications and base walking around selected ASOs. The effect of increasing doses of these ASOs was assessed in the human neuroblastoma cell line SK-N-AS following transfection. Relative GRN mRNA levels in SK-N-AS cells after treatment was assessed 48-hours post-transfection, and data from exemplary ASOs is shown in FIGS. 5A and 5B.
Additional chemical modifications, including LNA, modifications were made to CO-3423. SK-N-AS cells were transfected with increasing concentrations of the LNA/PS modified ASOs and GRN mRNA quantified by qPCR. ASOs including different LNA modifications of CO-3423 had similar efficacy (i.e, similar increased GRN mRNA expression). GRN mRNA was normalized to the average fold-change of cells treated with two steric non-targeting control ASOs (CO-3772 and CO-1589 (sNTC1)).
The effect of ASO length on GRN gene expression modulation was also investigated. SK-N-AS cells were transfected with increasing concentrations of the longer ASOs and GRN mRNA quantified by qPCR. Increasing the length of CO-3423 increased the potency of the ASO, as shown in Table 4. mRNA was normalized to the average fold change of cells treated with two steric non-targeting control ASOs (CO-3772 and CO-1589 (sNTC1)).
To determine whether variations in the PO/PS internucleotide bond linkages impacted the ability of CO-3423 and CO-3431 to modulate gene expression, several modified ASOs based on these parent ASOs were prepared. SK-N-AS cells were transfected with increasing concentrations of the mixed PO/PS bond ASOs described in Tables 5 and 6, and GRN mRNA quantified by qPCR.
GRN mRNA fold-change after treatment with mixed PO/PS bond versions of CO-3423 is shown in Table 5. mRNA was normalized to the average fold change of cells treated with steric nontargeting controls (CO-3772, CO-1589 (sNTC1), and CO-1929 (sNTC3)).
GRN mRNA fold-change after treatment with mixed PO/PS bond versions of CO-3431 is shown in Table 6. mRNA was normalized as described above.
To further assess the effect of additional modifications on the ability of CO-3423 parent ASO to modulate GRN gene expression, additional LNA tiling and PO bond modifications were incorporated to CO-3423. SK-N-AS cells were transfected with increasing concentrations of the modified ASOs and GRN mRNA quantified by qPCR. CO-3423 was used for comparison. GRN mRNA was normalized to the average fold-change of cells treated with a steric non-targeting control ASO, CO-1589 (sNTC1).
To further assess the effect of modifications on the ability of CO-3463 parent ASO to modulate GRN gene expression, ASOs based on this ASOS incorporating additional LNA modifications were prepared and compared to […]. SK-N-AS cells were transfected with increasing concentrations of the ASOs and GRN mRNA quantified by qPCR. GRN mRNA was normalized to the average fold-change of cells treated with a steric non-targeting control ASO, CO-1589 (sNTC1).
68 additional ASOs were designed to target intergenic enhancers (eRNA). 48 hours post-transfection, the cells were collected for GRN mRNA analysis using qPCR. CO-1589, a steric nontargeting control ASO, was used as a control. GRN mRNA was normalized to cells treated with CO-1589.
The best hits from these ASOs were tested in a dose escalation study. Cells were incubated for 48 hours. Subsequently, the cells were collected for mRNA quantification via RT-qPCR. […]

[1] = Table 9, 48 hours post-transfection, normalized to CO-1589
[2] = Table 4, normalized to CO-3772 and CO-1589 (sNTC1)
[3] = Table 10, 48 hours, normalized to CO-1589
[4] = Table 12, normalized to CO-1589
[5] = Table 11, 48 hours, normalized to CO-1589
[6] = Table 13, normalized to CO-1589

Row | Substance | hGRN mRNA FC [1] [FC] | 30 nM FC (GRN mRNA) [4] [FC] | 60 nM FC (GRN mRNA) [4] [FC] | 120 nM FC (GRN mRNA) [4] [FC] | further results
1 | CO-4614: ASO designed to target intergenic enhancers (eRNA) (antisense eT*eG*eA*e[5mC]*eT*eA*eG*eA*eG*eA*eA*eA*e[5mC]*eG*e[5mC]*eT*eT*eA*eG*eA) | 1.2 | – | – | – | –
2 | CO-4124: GRN paRNA-targeting ASO; longer ASO related to CO-3423 (antisense eG*eA*e[5mC]*eT*eT*eG*eG*eG*eA*eG*eT*eG*eG*eT*eG*eA*e[5mC]*eT*eG*eA) | 1.3 | – | – | – | 30 nM FC (GRN mRNA) [2]: 1.2 FC; 60 nM FC (GRN mRNA) [2]: 1.7 FC; 120 nM FC (GRN mRNA) [2]: 1.7 FC; 3.75 nM FC (GRN mRNA) (Table 10, 3.75 nM, 48 hours, normalized to CO-1589): 1.0 FC; 7.5 nM FC (GRN mRNA) (Table 10, 7.5 nM, 48 hours, normalized to CO-1589): 1.0 FC; 15 nM FC (GRN mRNA) (Table 10, 15 nM, 48 hours, normalized to CO-1589): 1.0 FC; 30 nM FC (GRN mRNA) [3]: 1.2 FC; 60 nM FC (GRN mRNA) [3]: 1.4 FC; 120 nM FC (GRN mRNA) [3]: 1.9 FC
3 | CO-4647: ASO designed to target intergenic enhancers (eRNA) (antisense e[5mC]*eT*eA*eA*eG*e[5mC]*eG*eT*eT*eT*e[5mC]*eT*e[5mC]*eT*eA*eG*eT*e[5mC]*eA*eT) | 0.8 | – | – | – | –
4 | CO-6513: ASO based on parent ASO CO-3462 (antisense eT*eA*eGeGeAeGeAeAeT*e[5mC]*eG*e[5mC]*eT*eT*eT*eG*eG*eG*eA*eG) | – | 1.3 | 2.7 | 1.8 | –
5 | CO-6381: ASO based on parent ASO CO-3462 (antisense eT*eG*eA*eT*e[5mC]*eA*eG*e[5mC]*eT*eT*eG*eG*eG*e[5mC]*eG*eA*e[5mC]*eT*eG*eA) | – | 0.8 | 0.7 | 1.0 | –
6 | CO-4595: ASO designed to target intergenic enhancers (eRNA) (antisense eA*eG*e[5mC]*e[5mC]*e[5mC]*eG*eA*e[5mC]*e[5mC]*eT*eT*eG*eA*e[5mC]*eT*eG*eA*eT*eA*eG) | 1.0 | – | – | – | –
7 | CO-6517: ASO based on parent ASO CO-3462 (antisense eT*eA*eGeGeAeGeAeAeTe[5mC]eGe[5mC]eTeTeTeGeG*eG*eA*eG) | – | 1.2 | 2.3 | 2.0 | –
8 | CO-6453: ASO designed to target an intragenic enhancer RNA (eRNA) (eG*eA*eA*eA*eA*eA*eG*eT*eT*eT*e[5mC]*e[5mC]*eT*e[5mC]*e[5mC]*eA*eT*e[5mC]*e[5mC]*eT) | – | – | – | – | hGRN mRNA FC [5]: 0.9 FC
9 | CO-6396: ASO based on parent ASO CO-3462 (antisense eT*eA*eG*lG*eA*eG*eA*lA*eT*e[5mC]*eG*l[5mC]*eT*eT*eT*lG*eG*eG*eA*eG) | – | 1.4 | 1.9 | 1.9 | –
10 | CO-4593: ASO designed to target intergenic enhancers (eRNA) (antisense eT*eT*eT*eT*eG*e[5mC]*e[5mC]*e[5mC]*eA*eG*e[5mC]*eG*e[5mC]*e[5mC]*e[5mC]*e[5mC]*eT*eT*eT*eA) | 0.8 | – | – | – | –
11 | CO-6441: ASO designed to target an intragenic enhancer RNA (eRNA) (eG*eG*e[5mC]*eT*eG*eA*eT*eG*e[5mC]*eA*eG*eG*eG*eT*eT*e[5mC]*eA*eT*eG*e[5mC]) | – | – | – | – | hGRN mRNA FC [5]: 1.4 FC
12 | CO-6451: ASO designed to target an intragenic enhancer RNA (eRNA) (eA*e[5mC]*eG*eT*eT*eT*eG*e[5mC]*eT*e[5mC]*e[5mC]*eT*e[5mC]*eT*eT*e[5mC]*e[5mC]*eA*eG*eT) | – | – | – | – | hGRN mRNA FC [5]: 1.0 FC
13 | CO-4640: ASO designed to target intergenic enhancers (eRNA) (antisense eG*e[5mC]*e[5mC]*e[5mC]*e[5mC]*e[5mC]*eT*eA*eG*eA*eG*eG*eA*e[5mC]*eA*eT*eT*eT*eT*eT) | 1.0 | – | – | – | –
14 | CO-6401: ASO based on parent ASO CO-3462 (antisense eG*eT*eA*eG*eG*dA*dG*dA*eA*dT*d[5mC]*dG*d[5mC]*eT*dT*dT*dG*eG*eG*eA*eG*e[5mC]) | – | 1.2 | 1.5 | 1.7 | –
15 | CO-4601: ASO designed to target intergenic enhancers (eRNA) (antisense eG*eT*eA*eG*eG*e[5mC]*e[5mC]*eT*e[5mC]*eG*eA*e[5mC]*eT*eT*eT*eG*eA*e[5mC]*eG*eT) | 1.0 | – | – | – | –
16 | CO-6519: ASO based on parent ASO CO-3462 (antisense eT*eA*eG*eG*eA*eGeAeAeTe[5mC]eGe[5mC]eTeTeTeGeGeG*eA*eG) | – | 1.1 | 1.0 | 0.9 | –
17 | CO-6417: ASO based on parent ASOs CO-4363 and CO-4364 (eG*eG*eA*e[5mC]*lT*eT*eG*eG*lG*eA*eG*eT*lG*eG*eT*eG*lA*e[5mC]*eT*eG*eA) | – | – | – | – | 30 nM FC (GRN mRNA) [6]: 1.4 FC; 60 nM FC (GRN mRNA) [6]: 2.3 FC; 120 nM FC (GRN mRNA) [6]: 2.8 FC
18 | CO-4648: ASO designed to target intergenic enhancers (eRNA) (antisense eA*e[5mC]*eG*e[5mC]*e[5mC]*eA*eA*eA*e[5mC]*e[5mC]*e[5mC]*eT*eT*eG*eA*eT*e[5mC]*e[5mC]*eA*eG) | 1.6 | – | – | – | –
19 | CO-6402: ASO based on parent ASO CO-3462 (antisense eG*eT*eA*eG*eG*lA*dG*dA*lA*dT*d[5mC]*dG*d[5mC]*lT*dT*dT*lG*eG*eG*eA*eG*e[5mC]) | – | 1.5 | 1.6 | 1.8 | –
20 | CO-6389: ASO based on parent ASO CO-3462 (antisense eT*eA*eG*lG*eA*dG*dA*lA*dT*d[5mC]*dG*l[5mC]*dT*dT*dT*lG*eG*eG*eA*eG) | – | 1.0 | 1.0 | 2.1 | –
21 | CO-6415: ASO based on parent ASOs CO-4363 and CO-4364 (antisense eG*eG*eA*l[5mC]*eT*eT*lG*eG*eG*lA*eG*eT*lG*eG*eT*lG*eA*e[5mC]*lT*eG*eA) | – | – | – | – | 30 nM FC (GRN mRNA) [6]: 1.3 FC; 60 nM FC (GRN mRNA) [6]: 1.6 FC; 120 nM FC (GRN mRNA) [6]: 1.6 FC
22 | CO-6385: ASO based on parent ASO CO-3462 (antisense e[5mC]*eG*eG*eT*eA*eG*eG*eA*eG*eA*eA*eT*e[5mC]*eG*e[5mC]*eT*eT*eT*eG*eG) | – | 1.1 | 1.2 | 1.3 | –

— patent US20250243488A1, “METHODS OF MODULATING PROGRANULIN EXPRESSION USING ANTISENSE OLIGONUCLEOTIDES TARGETING REGULATORY RNAS” (Camp4 Therapeutics Corporation, priority 2022, published 2025)
